Data set [1] is described as follows: Hygroscopicity according to European Pharmacopoeia 6.0. The format is physicochemical. The conditions noted are these: for Hygroscopicity, % increase in mass: 25 ± 1° C./80 ± 2% RH for 24 h, monocalcium salt.
Data set [2] is described as follows: Storage stability of the amorphous form followed by XRPD. It counts as physicochemical. The conditions noted are these: 40±1° C. at 75±2% RH, two months. The protocol:
The XRPD of the samples were determined by using Panalytical X'Pert Pro X-Ray Powder Diffractometer in the range 3 to 40 degree 2 theta with a step size of 0.02 and under tube voltage and current of 45 Kv and 40 mA respectively. Copper radiation of wavelength 1.54 angstrom and Xceletor detector were used.
Fosamprenavir calcium (5 g) was dissolved in methanol (125 ml) at 25° to 30° C. The solution was filtered and fed to a spray dryer (BUCHI, B-290) at feed pump RPM of 1% to 3%. The following parameters were controlled in the spray drying process: • Nozzle Diameter: 0.7 mm • Carrier gas: Nitrogen at 2.0 to 3.0 kg/cm^2 • Air inlet temperature: 80° to 85° C. • Outlet temperature: 35° to 55° C. • Type of atomizer: Two fluid nozzle • The solvent was evaporated at 80° to 85° C. by spray drying. The solid so obtained was collected from the spray dryer and further dried at 55° to 60° C. under vacuum (10 to 15 mmHg) for 10 to 12 hours to obtain the title compound having an XRPD pattern as depicted in FIG. 2.

The nature of data set [3]: Aqueous solubility test according to United States Pharmacopeia 32. It counts as physicochemical. Conditions: for Solubility (mg/ml of solvent) / Parts of solvent required per g of solute / solubility: aqueous; for Solubility (mg/ml of solvent) / solubility: by qualitative observation; for solubility: thermodynamic from solid, read-out: Solubility (mg/ml of solvent).
For data set [4] the following is noted: Antimicrob. Agents Chemother., 2004, 48(3), 791-798; cited from earlier work.

Data on four compounds can be found in patent publication US20120135965A1, “AMORPHOUS FOSAMPRENAVIR CALCIUM” (RANBAXY LABORATORIES LIMITED, priority 2009, published 2012).

Each structure is given as a SMILES string. Where two headings read alike, the source gives them in different places. Marks after values point to notes of the source that are not given here. Bounds are passed on as bounds.

As for `CC(C)CN(C[C@@H](OP(=O)([O-])[O-])[C@H](Cc1ccccc1)NC(=O)O[C@H]1CCOC1)S(=O)(=O)c1ccc(N)cc1.[Ca+2]` [(3S)-tetrahydrofuran-3-yl (1S ,2R)-3-[[(4-aminophenyl)sulfonyl](isobutyl)amino]-1-benzyl-2-(phosphonooxy)propylcarbamate monocalcium salt, reference compound], the “Hygroscopicity, % increase in mass” value in data set [1] (listed as Crystalline form I) was 11.62%.
For the compound `CC(C)CN(C[C@@H](OP(=O)([O-])[O-])[C@H](Cc1ccccc1)NC(=O)O[C@H]1CCOC1)S(=O)(=O)c1ccc(N)cc1.[Ca+2]` [Amorphous fosamprenavir calcium, (3S)-tetrahydrofuran-3-yl (1S ,2R)-3-[[(4-aminophenyl)sulfonyl](isobutyl)amino]-1-benzyl-2-(phosphonooxy)propylcarbamate monocalcium salt], the “Change in XRPD pattern / conversion into crystalline form on storage” value in data set [2] (listed as Example 2, monocalcium salt) is reported as “no change in the XRPD pattern was observed”; in data set [2] (monocalcium salt), “not converted into any crystalline form”. In data set [1], the Hygroscopicity in words result is listed as “essentially non-hygroscopic”. Also, in data set [1], the “Hygroscopicity, % increase in mass” value is recorded as 17.5%. Moreover, the “Solubility (mg/ml of solvent)” value turned out to be 1.25 mg/mL in data set [3] (pH 1.47, monocalcium salt); 10 mg/mL in data set [3] (pH 3.27, monocalcium salt); 6.7 mg/mL in data set [3] (pH 5.02, monocalcium salt). The “Parts of solvent required per g of solute” value is 800 parts in data set [3] (pH 1.47, monocalcium salt); 100 parts in data set [3] (pH 3.27, monocalcium salt); 150 parts in data set [3] (pH 4.11, monocalcium salt); 150 parts in data set [3] (pH 5.02, monocalcium salt). Besides, the solubility in data set [3] (pH 4.11, aqueous buffer, pH 4.11) was 6.7 mg/mL; in data set [3] (pH 6.27, aqueous buffer, pH 6.27), 0.1 mg/mL. For the same compound, the “Volume of aqueous solution required for dissolving about 1 g” value in data set [3] (pH of about 3 to about 5.5) is listed as “not more than 200 ml”. For the same compound, in data set [3] (relevant physiological pH range), the “Solubility compared with crystalline form I of fosamprenavir calcium” value was “superior”.
As to `CC(C)CN(C[C@@H](OP(=O)([O-])[O-])[C@H](Cc1ccccc1)NC(=O)O[C@H]1CCOC1)S(=O)(=O)c1ccc(N)cc1.[Ca+2]` [Crystalline form I of fosamprenavir calcium] [(3S)-tetrahydrofuran-3-yl (1S ,2R)-3-[[(4-aminophenyl)sulfonyl](isobutyl)amino]-1-benzyl-2-(phosphonooxy)propylcarbamate monocalcium salt, reference compound], the “Solubility (mg/ml of solvent)” value in data set [3] (pH 1.47) stood at 0.5 mg/mL; in data set [3] (pH 3.27, monocalcium salt), 2.5 mg/mL; in data set [3] (pH 4.11, monocalcium salt), 4.0 mg/mL; in data set [3] (pH 5.02, monocalcium salt), 3.3 mg/mL. Moreover, the “Parts of solvent required per g of solute” value is 2100 parts in data set [3] (pH 1.47, monocalcium salt); 400 parts in data set [3] (pH 3.27, monocalcium salt); 250 parts in data set [3] (pH 4.11, monocalcium salt); 300 parts in data set [3] (pH 5.02, monocalcium salt); > 10,000** parts in data set [3] (pH 6.27, monocalcium salt).
As for `CC(C)CN(C[C@@H](OP(=O)([O-])[O-])[C@H](Cc1ccccc1)NC(=O)O[C@H]1CCOC1)S(=O)(=O)c1ccc(N)cc1.[Ca+2]` [calcium salt, (3S)-tetrahydrofuran-3-yl (1S ,2R)-3-[[(4-aminophenyl)sulfonyl](isobutyl)amino]-1-benzyl-2-(phosphonooxy)propylcarbamate monocalcium salt], in data set [4], the “Solubility over the relevant physiological pH range, compared among forms” value is “reduced solubility”.
